{"source": "patent US10201558B2", "about": "“Compositions of selenoorganic compounds and methods of use thereof” (Alltech, Inc., priority 2014, dated 2019)", "key": {"[1]": {"test_system": "Zic1-5, Foxp2, Drd1a, Tac1, Sez6, Penk, Dlx5, Rarb, Meis2, Ddx5, Gpr88, Pde10a, Akap5, Isl1", "test": "QRT-PCR of Zic genes and brain development/neuronal function genes in APP/PS1 mouse brains", "assay_type": "in vivo", "settings": "Compound C diet vs control diet", "procedure": "Male APPΔNLh/ΔNLh×PS1P246 L/246 L knock-in model mice of Alzheimer's disease (abbreviated APP/PS1) were genotyped using standard primers for human APP (Amyloid Precursor Protein) and human PS1 (PSEN1). These APP/PS1 mice starting at the age of 6 months, were fed either a control diet containing normal levels of selenium (0.3 ppm from plant and inorganic selenium salt sources) or an experimental diet containing Compound C (the control diet to which was added 1 ppm Se from Compound C) for 6 months. […]\nApproximately 10 mg brain sample was homogenized with a Qiagen TissueRuptor (Qiagen, Valencia, Calif.) and total RNA was extracted using an RNeasy Mini kit (Qiagen), following the protocol recommended by the company. […] Integrity and purity of isolated RNA was assessed using a NanoDrop ND-1000 spectrophotometer (Thermo Scientific, Wilmington, Del.) and further confirmed with an Agilent 2100 Bioanalyzer System (Agilent Technologies, Santa Clara, Calif.).\nRNA samples were subjected to real-time PCR analysis using the Applied-Bioscience's RT kit and predesigned Taqman probes (Invitrogen), as described previously (Lan et al EMBO J 2003). Three to six samples were analyzed in each group. […]"}, "[2]": {"test_system": "gene transcripts in the brains of APP/PS1 mice", "test": "Microarray analysis of RNA expression in the brains of APP/PS1 mice", "assay_type": "in vivo, mouse"}, "[3]": {"test_system": "phosphorylated Foxo3 (threonine 32)", "test": "Western blot of phosphorylated Foxo3 in APP/PS1 mouse brains", "assay_type": "in vivo", "settings": "APP/PS1 mouse brain, Compound C diet vs control diet", "procedure": "Male APPΔNLh/ΔNLh×PS1P246 L/246 L knock-in model mice of Alzheimer's disease (abbreviated APP/PS1) were genotyped using standard primers for human APP (Amyloid Precursor Protein) and human PS1 (PSEN1).\nAt 12 months of age, the mice were euthanized and the brains quickly removed, the cerebellum isolated and the hemispheres snap-frozen in liquid nitrogen and then stored at −80° C. for further immunohistochemistry (IHC), protein and RNA analysis. All procedures conducted on these animal studies were pre-approved by the University of Kentucky IACUC committee.\nFrozen hemispheres of control- and Compound C-treated APP/PS1 mice were weighed and homogenized in PBS buffer, and then subsequently extracted with RIPA buffer (Sigma) containing complete proteinase and phosphatase inhibitors (Fisher Scientific). Protein levels in the samples were determined by micro-BCA protein analysis according to the manufacturer's protocol. […] Positive signals on the membrane blots were detected using Amersham's enhanced chemiluminescence Western Blotting Prime Detection reagents (GE healthcare Lifescience, Pittsburgh, Pa.). Images of these luminescence signals on the membrane blots were captured using the LI-COR Odyssey Fc Image system (Lincoln, Nebr.). […]"}, "[4]": {"settings": "APP/PS1 mouse brain, Compound C diet vs control diet"}}, "note": "Entries after “also recorded” stand apart in the source; their conditions may differ.", "data": [{"smiles": "C[Se]C[C@H]1O[C@@H](n2cnc3c(N)ncnc32)C(O)C1O", "note": "(stereo in doubt) [Compound C, 5′-deoxy-5′-methylselenoadenosine]", "values": [{"measurement": "expression of Foxp2, Drd1a, Tac1, Sez6, Penk, Dlx5, Rarb, Meis, Ddx5, Gpr88, Pde10a, Isl1 and Akap5 by QRT-PCR", "setting": "[1]", "result": "significantly elevated"}, {"measurement": "expression of Zic1, Zic2, Zic3, Zic4 and Zic5 by QRT-PCR", "setting": "[1]", "result": "significantly elevated"}, {"measurement": "number of genes with regulated expression in the brains", "setting": "[2]; APP/PS1 mice, fold change of more than 1.2", "result": 2217, "unit": "genes"}, {"measurement": "Fold Change, Akap5", "setting": "[2]; [4]", "result": 1.589, "unit": "fold"}, {"measurement": "Fold Change, Apbb1", "setting": "[2]; [4]", "result": "−1.293", "unit": "fold"}, {"measurement": "Fold Change, App", "setting": "[2]; [4]", "result": "−1.22", "unit": "fold"}, {"measurement": "Fold Change, Bcl2", "setting": "[2]; [4]", "result": 1.246, "unit": "fold"}, {"measurement": "Fold Change, Camk2a", "setting": "[2]; [4]", "result": "−1.67", "unit": "fold"}, {"measurement": "Fold Change, Cnr1", "setting": "[2]; [4]", "result": "−1.492", "unit": "fold"}, {"measurement": "Fold Change, Ddx5", "setting": "[2]; [4]", "result": 1.26, "unit": "fold"}, {"measurement": "Fold Change, Dlx5", "setting": "[2]; [4]", "result": 2.09, "unit": "fold"}, {"measurement": "Fold Change, Drd1", "setting": "[2]; [4]", "result": 4.22, "unit": "fold"}, {"measurement": "Fold Change, Foxp2", "setting": "[2]; [4]", "result": 2.52, "unit": "fold"}, {"measurement": "Fold Change, Gabra1", "setting": "[2]; [4]", "result": "−1.407", "unit": "fold"}, {"measurement": "Fold Change, Gabra2", "setting": "[2]; [4]", "result": 1.275, "unit": "fold"}, {"measurement": "Fold Change, Gabrg1", "setting": "[2]; [4]", "result": 1.375, "unit": "fold"}, {"measurement": "Fold Change, Gad2", "setting": "[2]; [4]", "result": 1.69, "unit": "fold"}, {"measurement": "Fold Change, Gpr6", "setting": "[2]; [4]", "result": 9.07, "unit": "fold"}, {"measurement": "Fold Change, Gpr88", "setting": "[2]; [4]", "result": 6.47, "unit": "fold"}, {"measurement": "Fold Change, Grm4", "setting": "[2]; [4]", "result": 1.418, "unit": "fold"}, {"measurement": "Fold Change, Htr2c", "setting": "[2]; [4]", "result": 1.797, "unit": "fold"}, {"measurement": "Fold Change, Isl1", "setting": "[2]; [4]", "result": 11.32, "unit": "fold"}, {"measurement": "Fold Change, Mapk8", "setting": "[2]; [4]", "result": "−1.289", "unit": "fold"}, {"measurement": "Fold Change, Mapt", "setting": "[2]; [4]", "result": "−1.21", "unit": "fold"}, {"measurement": "Fold Change, Meis2", "setting": "[2]; [4]", "result": 2.04, "unit": "fold"}, {"measurement": "Fold Change, Nrxn1", "setting": "[2]; [4]", "result": "−1.444", "unit": "fold"}, {"measurement": "Fold Change, Pak1", "setting": "[2]; [4]", "result": "−1.201", "unit": "fold"}, {"measurement": "Fold Change, Pde10a", "setting": "[2]; [4]", "result": 2.91, "unit": "fold"}, {"measurement": "Fold Change, Penk", "setting": "[2]; [4]", "result": 4.068, "unit": "fold"}, {"measurement": "Fold Change, Prdx1", "setting": "[2]; [4]", "result": 1.272, "unit": "fold"}, {"measurement": "Fold Change, Prkacb", "setting": "[2]; [4]", "result": "−1.396", "unit": "fold"}, {"measurement": "Fold Change, Prkar2b", "setting": "[2]; [4]", "result": 1.439, "unit": "fold"}, {"measurement": "Fold Change, Prkcd", "setting": "[2]; [4]", "result": 1.813, "unit": "fold"}, {"measurement": "Fold Change, Prnp", "setting": "[2]; [4]", "result": "−1.256", "unit": "fold"}, {"measurement": "Fold Change, Rarb", "setting": "[2]; [4]", "result": 4.03, "unit": "fold"}, {"measurement": "Fold Change, Rims1", "setting": "[2]; [4]", "result": "−1.459", "unit": "fold"}, {"measurement": "Fold Change, Scarb1", "setting": "[2]; [4]", "result": 1.56, "unit": "fold"}, {"measurement": "Fold Change, Scp2", "setting": "[2]; [4]", "result": 1.204, "unit": "fold"}, {"measurement": "Fold Change, Sez6", "setting": "[2]; [4]", "result": 1.33, "unit": "fold"}, {"measurement": "Fold Change, Sod1", "setting": "[2]; [4]", "result": 1.274, "unit": "fold"}, {"measurement": "Fold Change, Sorl1", "setting": "[2]; [4]", "result": "−1.41", "unit": "fold"}, {"measurement": "Fold Change, Sox2", "setting": "[2]; [4]", "result": 1.274, "unit": "fold"}, {"measurement": "Fold Change, Tac1", "setting": "[2]; [4]", "result": 3.36, "unit": "fold"}, {"measurement": "Fold Change, ZIC1", "setting": "[2]; [4]", "result": 3.25, "unit": "fold"}, {"measurement": "Fold Change, Zic3", "setting": "[2]; [4]", "result": 2.28, "unit": "fold"}, {"measurement": "Fold Change, Zic4", "setting": "[2]; [4]", "result": 1.75, "unit": "fold"}, {"measurement": "Fold Change, Zic5", "setting": "[2]; [4]", "result": 1.53, "unit": "fold"}, {"measurement": "Foxo 1, 3 and 4 mRNA levels", "setting": "[2]; [4]", "result": "no significant change"}, {"measurement": "phosphorylated Foxo3 at threonine 32 (pFoxo3) protein", "setting": "[3]", "result": "inhibition; also recorded: less abundant; also recorded: significant decrease"}]}]}
